# Results from patent publication US7396624B2, “Electrophotographic photoreceptor containing naphthalenetetracarboxylic acid diimide derivatives and electrophotographic imaging apparatus employing the same” (Samsung Electronics Co., Ltd., priority 2004, dated 2008).
# Experiment: Solubility Test (amount of methylene chloride to completely dissolve 1 g of compound)
# Type: physicochemical
# Details: room temperature, methylene chloride added dropwise while stirring
# Procedure: 1 g of the compound to be tested was added to a test tube at room temperature and methylene chloride was added dropwise while stirring to determine the amount of methylene chloride required to completely dissolve 1 g of the test compound.
row,Compound,Amount of methylene chloride required to dissolve 1 g of a compound
1,CC(C)N1C(=O)c2ccc3c4c(ccc(c24)C1=O)C(=O)N(C(C)C)C3=O [Comparative Compound (9a)],25 g
2,CCC(CC)N1C(=O)c2ccc3c4c(ccc(c24)C1=O)C(=O)N(C(CC)CC)C3=O [Comparative Compound (10a)],17.5 g
3,CC(c1ccccc1)N1C(=O)c2ccc3c4c(ccc(c24)C1=O)C(=O)N(C(C)c1ccccc1)C3=O (stereo not shown) [Compound (1)],3.5 g
4,CCC(c1ccccc1)N1C(=O)c2ccc3c4c(ccc(c24)C1=O)C(=O)N(C(CC)c1ccccc1)C3=O (stereo not shown) [Compound (2)],2 g
